# Measurements: article PMC11912270, “Synthesis and SAR Studies of Acyl-Thiourea Platinum(II) Complexes Yield Analogs with Dual-Stage Antiplasmodium Activity” (ACS Medicinal Chemistry Letters, 2025)
# pIC50: −log10 of the molar value.
# What was measured:
# [1] = Single-point microsomal metabolic stability, mouse; assay type: in vitro ADME; settings: mouse liver microsomes, 1 µM
# Procedure: 1.8. Microsomal metabolic stability studies […]
# rat IGS, Xenotech), and mouse (male mouse CD1, Xenotech) liver microsomes (0.4 mg/ml) for 30 min at 37 °C. Reactions were quenched by adding ice-cold acetonitrile containing […]
# disappearance of the parent compound. Half-life, clearance, and hepatic excretion ratios were determined using standard equations.6,7 Propranolol. […]
# [2] = test system: early-stage gametocytes (NF54-PfS16-GFP-Luc); assay: Luciferase reporter assay, early-stage gametocytes; assay type: cell-based, Plasmodium falciparum; settings: single biological repeat
# Procedure: (§1) All the complexes were tested for their early- and late-stage gametocyte activity in a dual-point assay (1 μM and 5 μM). […]
# (§2) 1.5.In vitro activity against gametocyte stages
# (§3) PfNF54 gametocytes were prepared and isolated according to the method reported by Reader […]
# (§4) The in vitro gametocyte activity of the synthesized complexes was determined using a luciferase reporter line-based assay.
# (§5) NF54-PfS16-GFP-Luc parasites were used for the stage-specific assessment of gametocytocidal activity. Early-stage gametocyte (stage I-III) experiments were performed on day 5 (representing >90% of early-stage and late-stage gametocyte (stages IV/V) experiments were performed on day 10. In each experiment, assays were set up with the use of 2-3% […]
# (§6) Luciferase activity was determined in 30 µL parasite lysates by adding luciferin substrate (30 µL) (Promega Luciferase Assay System) at room temperature. […]
# [3] = Kinetic solubility by HPLC (pH 6.5); settings: kinetic, HPLC, pH 6.5
# Procedure: 1.7. Kinetic solubility by HPLC (pH 6.5)
# Solubility was measured at pH 6.5 using an adapted miniaturized shake-flask method, in 96-well plate format.4,5 Briefly, 4 µL of a 10 mM stock in DMSO was added to a 96-well plate and evaporated using a GeneVac system. Phosphate buffer pH 6.5 was then added to the wells […]
# At the end of this incubation, the […]
# in the analysis plate. Analysis was then performed by HPLC-DAD and the solubility of each sample was determined from the corresponding calibration curve. […]
# [4] = test system: Chinese hamster ovary (CHO) cell line; assay: MTT cytotoxicity assay; assay type: cell-based; settings: cytotoxicity, MTT, 48 h; N, n = 1, 3; read-out: CHO IC50
# Procedure: 1.6.In vitro cytotoxicity assay
# A 3-(4,5-dimethylthiazol-2-yl)-2,5-diphenyltetrazoliumbromide (MTT) assay was used to screen the metal complexes against the mammalian Chinese hamster ovarian (CHO) cell line.
# A stock solution of each compound (2 mg/mL) in DMSO was prepared and kept at -20 °C until needed. Emetine was used as a reference drug. A starting concentration of 100 µg/mL was used, and serially diluted ten-fold using a complete medium to give the lowest concentration of 0.001 µg/mL (6 dilutions). The plates containing the CHO cells under drug pressure were […]
# Plates containing the drug and cell suspension were developed by adding 25 μL of sterile MTT (Thermo Fisher Scientific) (25 µL) to each well, followed by 4 h […]
# of incubation at room temperature in the dark. The plates were then centrifuged, and the supernatant was removed via aspiration. Sample absorbance was read at a wavelength of 540 […]
# analysis via GraphPad Prism v.4.0 software. The IC50 values were determined for each compound were determined from the dose-response curves. […]
# [5] = test system: red blood cells (RBCs); assay: Hemolysis assay; assay type: cell-based; settings: up to 10 μM, 1 and 72 h
# Procedure: The hemolysis assay was conducted in a 96-well round-bottom plate. A 10 mM stock of the test compound in DMSO was diluted to 10 μM using complete growth medium. Complete growth medium (100 μL) was added to all wells in columns 1 and columns 3–12. The test compound in a complete growth medium (200 μL) were added in duplicate to well 2 and serially diluted two-fold down the plate (from wells 2–11). Triton X-100 (4%, v/v) was used as
# RBCs in complete growth medium
# (2% hematocrit) were lysed via three freeze/thaw cycles (-80 °C/37 °C) and were added to all wells in column 1 (100 µL). Intact RBCs in complete growth medium were added to wells 2– 12 and the plates were incubated at 37 °C for either 1 hour or 72 hours. After removing the plates from the incubator, each well was mixed thoroughly with a multichannel pipette and spun in a centrifuge at 750 rcf for 5 minutes. The supernatant was transferred to a 96-well flat-bottom plate and the absorbance of each well read on a microplate reader (Thermo Scientific
# Percentage hemolysis was calculated using Equation 2 and the graphs generated using GraphPad Prism 10.
# % ℎ𝑒𝑚𝑜𝑙𝑦𝑠𝑖𝑠 = (𝐴𝑠 ― 𝐴0) × 100 𝑬𝒒. 𝟐
# [6] = test system: late-stage gametocytes (NF54-PfS16-GFP-Luc); assay: Luciferase reporter assay, late-stage gametocytes; assay type: cell-based, Plasmodium falciparum
# Procedure: as §1, §2, §3, §4, §5, §6
# [7] = Cyclic voltammetry; assay type: physicochemical
# Description: It is known that Fe^2+/Fe^3+ redox chemistry has an important role in the bioactivity of ferrocene derivatives.[33] The production of reactive oxygen species (ROS) is one of the modes of action of ferroquine and other ferrocene derivatives[34] and is linked to the correlation between their bioactivity and electrochemical behavior. We determined whether a similar correlation could be made for the mixed-ligand platinum(II) complexes reported herein given that metal centers have the potential to be oxidized and reduced. The electrochemistry of the complexes was studied using cyclic voltammetry (CV), which uses a triangular potential waveform. The CV experiments were performed in either dry MeOH or DMF containing tetrabutylammonium chloride (TBACl) as the supporting electrolyte. The working electrode was glassy carbon with a platinum wire as the counter electrode and Ag/AgCl as the reference. The anodic (Epa) and cathodic (Epc) peak potentials at 0.1 V/s and half-wave potentials (E1/2) were measured (Table 3). All of the tested complexes undergo reversible one-electron Pt^2+/Pt^+ reductions (Figures S38–S46). Complexes C2, C4, and C8 undergo a second nonreversible reduction (Epc2), which is most likely ligand-based and linked to reductions of the substituent on the bpy. Looking at SAR2, the more electron-withdrawing the substituent, the […] the E1/2 (V vs Fe/Fe^+) value was. This trend was expected, as a more electron-withdrawing substituent reduces the electron density around the metal center, making it easier for the metal to be reduced from Pt^2+ to Pt^+. […] This is also the case for other bpy-containing platinum(II) complexes that only undergo reductions.[35],[36] […]
# For the cyclic voltammetry experiments a solution of the test compound (1 x 10-3) in DMSO (3 mL) is added to the electrolyte solution (0.1 M tetrabutylammonium chloride (TBACl) in DMSO). The electrochemical measurements were obtained using a Basi Epsilon Eclipse Electrochemical Analyzer Potentiostat and the CV graphs were generated using Excel. The working electrode was glassy carbon (GC) with platinum wire as the counter electrode (CE) and Ag/AgCl as the reference. […]
smiles,measurement,setting,value
Nc1cc[n+]2c(c1)-c1cc(N)cc[n+]1[Pt-2]21[O+]=C(c2ccccc2)N=C(N(CCO)CCO)[S]1.[Cl-] [C6],Microsomal metabolic stability (% remaining after 30 min) Mouse,[1],94 % remaining
same,EG (% inhibition) 1 µM,[2]; 1 µM,13.7 % inhibition
same,EG (% inhibition) 5 µM,[2]; 5 µM,20.1 % inhibition
same,Aqueous solubility pH 6.5,[3],100 μM
same,pIC50,[4],< 4.30
same,in vitro hemolytic activity,[5],do not induce hemolysis
same,LG (% inhibition) 1 µM,"[6]; 1 µM, single biological repeat",42.3 % inhibition
same,LG (% inhibition) 5 µM,"[6]; 5 µM, single biological repeat",32.4 % inhibition
same,pIC50,"[6]; late (IV/V) gametocytes, luciferase, 48 h, read-out: LG IC50",< 4.70
same,Epa1,"[7]; anodic peak potential, 0.1 V/s",–1.138 V
same,Epc1,"[7]; cathodic peak potential, 0.1 V/s",–1.068 V
same,E1/2,[7]; half-wave potential,–1.103 V vs Ag/Ag^+
same,E1/2,[7]; half-wave potential corrected to ferrocene,–1.643 V vs Fe/Fe^+
